The values that follow are results of earlier work, collected in patent US20200225249A1, “COMPOSITIONS AND METHODS FOR THE DIAGNOSIS AND TREATMENT OF DISEASES OF THE LIVER” (Viscient Biosciences, Inc., priority 2019, published 2020).

The test system of series [1] is primary neurons and astrocytes. The settings on record: Braidy et al, 2011.
Series [2] has as its system QPRT. The settings on record: rat hepatocytes; Shin M, et al., 1999.
For series [3], the system named is NASH patients. The settings on record: clinical trial; Laurin J, et al., 1996.
For series [4], the system named is rat hepatocytes. Conditions: Shin M, et al., 1999.

For the compound `O=C(O)c1ccccc1C(=O)O` [Phthalic acid, 1,2-Benzenedicarboxylic acid], the cell viability entry in series [1] is on record as “reduced cell viability”.

Turning to `CCOC(=O)C(C)(C)Oc1ccc(Cl)cc1` [Clofibrate], in series [2], the QPRT expression result is reported as “stimulates QPRT expression”. Moreover, the “symptoms of NASH patients” value in series [3] is listed as “failed to improve the symptoms”. In series [4], the “NAD+ levels” value is “increases NAD+ levels”.
